Drawing on patent US11149037B2, “Pyrazole MAGL inhibitors” (H. Lundbeck A/S, priority 2017, dated 2021), this text covers inhibition and IC50 for 14 molecules.

Usually IC50 stands for the concentration that gives 50% inhibition.

Common to all, as to type: biochemical
Assay [1] deals with MAGL (Homo sapiens (Human), UniProt Q99685). The experiment in a line: In vitro competitive activity-based protein profiling, human proteomes (prefrontal cortex or PC3 cell membrane fractions). As to conditions: human proteome; for inhibition at 1 µM: read-out: MAGL % inh. 1 μM (human). The method, boiled down:
(§1)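 Activity of MAGL and FAAH was quantified from fluorescent gel band intensities. Beforehand, inhibitors at several concentrations competed against subsequent probe labelling (FP-Rh, JW912 or HT-01) in species-matched proteomes, each step 30 min at 37° C.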

For assay [2], the target named is FAAH (Homo sapiens (Human), UniProt O00519). The assay is described as above. As to conditions: human proteome; for inhibition at 1 µM: read-out: FAAH % inh. 1 μM (human). The method, boiled down:
as §1

Assay [3] addresses FAAH (Mus musculus (Mouse), UniProt O08914). The experiment in a line: In vitro competitive activity-based protein profiling, mouse proteomes (brain membrane fraction or cell lysates). As to conditions: mouse proteome, read-out: FAAH % inh. 1 μM (mouse). The method, boiled down: as §1
Assay [4] concerns the target MAGL (Mus musculus (Mouse), UniProt O35678). The assay is described as above. As to conditions: mouse proteome, read-out: MAGL % inh. 1 μM (mouse). In a few lines: as §1

FAAH (Homo sapiens (Human), UniProt O00519), sequence (O00519 whole entry): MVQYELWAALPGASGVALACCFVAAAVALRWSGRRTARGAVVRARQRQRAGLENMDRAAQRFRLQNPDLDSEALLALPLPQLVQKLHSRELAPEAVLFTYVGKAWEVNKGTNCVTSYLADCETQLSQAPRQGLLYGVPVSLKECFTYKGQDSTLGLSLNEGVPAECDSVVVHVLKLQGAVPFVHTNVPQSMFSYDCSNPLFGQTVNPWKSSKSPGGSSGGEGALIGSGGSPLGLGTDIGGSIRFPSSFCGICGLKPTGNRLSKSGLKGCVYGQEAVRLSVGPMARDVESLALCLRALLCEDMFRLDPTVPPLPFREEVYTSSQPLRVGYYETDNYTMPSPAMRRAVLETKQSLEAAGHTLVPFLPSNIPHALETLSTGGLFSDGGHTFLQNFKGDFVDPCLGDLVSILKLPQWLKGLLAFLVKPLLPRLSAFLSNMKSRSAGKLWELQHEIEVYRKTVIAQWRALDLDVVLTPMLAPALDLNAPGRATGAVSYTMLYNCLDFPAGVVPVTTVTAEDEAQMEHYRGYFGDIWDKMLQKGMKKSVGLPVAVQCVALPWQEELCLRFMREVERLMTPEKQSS
MAGL (Homo sapiens (Human), UniProt Q99685), sequence (Q99685 whole entry): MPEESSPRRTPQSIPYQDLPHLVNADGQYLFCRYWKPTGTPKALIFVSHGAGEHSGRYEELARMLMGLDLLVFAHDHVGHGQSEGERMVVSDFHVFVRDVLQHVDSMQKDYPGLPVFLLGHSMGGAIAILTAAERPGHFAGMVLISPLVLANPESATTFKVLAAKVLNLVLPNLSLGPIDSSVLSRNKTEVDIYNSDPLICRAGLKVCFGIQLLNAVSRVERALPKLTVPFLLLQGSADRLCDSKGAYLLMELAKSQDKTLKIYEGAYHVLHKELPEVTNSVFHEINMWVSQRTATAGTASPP
MAGL (Mus musculus (Mouse), UniProt O35678), sequence (O35678 whole entry): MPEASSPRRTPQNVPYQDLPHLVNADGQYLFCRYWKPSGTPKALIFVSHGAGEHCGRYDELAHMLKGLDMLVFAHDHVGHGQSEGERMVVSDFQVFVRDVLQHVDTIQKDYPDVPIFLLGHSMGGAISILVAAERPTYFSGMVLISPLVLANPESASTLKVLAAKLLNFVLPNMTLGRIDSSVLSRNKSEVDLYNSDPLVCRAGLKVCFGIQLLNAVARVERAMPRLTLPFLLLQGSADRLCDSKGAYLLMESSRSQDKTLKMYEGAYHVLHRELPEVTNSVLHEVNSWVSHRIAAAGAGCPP
FAAH (Mus musculus (Mouse), UniProt O08914), sequence (O08914 whole entry): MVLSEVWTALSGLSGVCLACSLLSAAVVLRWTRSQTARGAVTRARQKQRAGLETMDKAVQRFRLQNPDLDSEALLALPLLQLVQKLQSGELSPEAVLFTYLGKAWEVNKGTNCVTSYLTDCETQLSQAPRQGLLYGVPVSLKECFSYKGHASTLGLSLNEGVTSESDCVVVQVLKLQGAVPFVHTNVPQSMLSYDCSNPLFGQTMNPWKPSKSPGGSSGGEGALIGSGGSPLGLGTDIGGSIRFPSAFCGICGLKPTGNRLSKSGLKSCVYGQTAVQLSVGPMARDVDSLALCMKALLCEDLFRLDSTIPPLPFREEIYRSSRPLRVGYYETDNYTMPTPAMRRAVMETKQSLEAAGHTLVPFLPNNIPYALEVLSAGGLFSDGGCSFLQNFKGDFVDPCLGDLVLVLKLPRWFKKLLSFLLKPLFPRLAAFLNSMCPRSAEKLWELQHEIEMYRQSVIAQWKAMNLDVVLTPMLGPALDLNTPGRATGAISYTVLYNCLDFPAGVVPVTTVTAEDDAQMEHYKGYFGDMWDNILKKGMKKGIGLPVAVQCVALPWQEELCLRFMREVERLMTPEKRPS

Turning to `CC(=O)Nc1ccn(C(=O)N2CC3CN(Cc4cccc(Oc5ccccc5Cl)c4)CC3C2)n1` (stereo not drawn) [Example 18, N-(1-(5-(3-(2-chlorophenoxy)benzyl)octahydropyrrolo[3,4-c]pyrrole-2-carbonyl)-1H-pyrazol-3-yl)acetamide], the inhibition at 1 µM at MAGL [1], on FAAH [2], on FAAH [3] and on MAGL [4] was more than 75% each time. In addition, the results for the IC50 at MAGL [1] and on FAAH [2] were less than 0.1 µM and 0.1 to 1 µM, respectively.

Take `CN(c1ccc(C(F)(F)F)cc1N1CCCC1)C1CCN(C(=O)n2ccc(NS(C)(=O)=O)n2)CC1` [Example 19, N-(1-(4-(methyl(2-(pyrrolidin-1-yl)-4-(trifluoromethyl)phenyl)amino)piperidine-1-carbonyl)-1H-pyrazol-3-yl)methanesulfonamide]: the inhibition at 1 µM is more than 75% at MAGL [1], 0 to 25% at FAAH [2], 0 to 25% at FAAH [3] and more than 75% at MAGL [4].

In the case of `CC(=O)Nc1ccn(C(=O)N2CCC3(CCCN3C(=O)c3ccc(Cl)c(C4CC4)c3)CC2)n1` [Example 20, N-(1-(1-(4-chloro-3-cyclopropylbenzoyl)-1,8-diazaspiro[4.5]decane-8-carbonyl)-1H-pyrazol-3-yl)acetamide], the inhibition at 1 µM at MAGL [1] was more than 75%; on FAAH [2], 0 to 25%; at FAAH [3], more than 75%; at MAGL [4] it was more than 75%. Besides, the figures for the IC50 at MAGL [1] and on FAAH [2] were less than 0.1 µM and 1 to 10 µM, respectively.

On to `CS(=O)(=O)Nc1ccn(C(=O)N2CCC(Oc3ccc(Cl)c(C4CCCC4)c3)CC2)n1` [Example 21, N-(1-(4-(4-chloro-3-cyclopentylphenoxy)piperidine-1-carbonyl)-1H-pyrazol-3-yl)methanesulfonamide], for which the inhibition at 1 µM at MAGL [1] is more than 75%; on FAAH [2] it was 0 to 25%; on FAAH [3] it was 0 to 25%; at MAGL [4], more than 75%.

On to `CC(=O)Nc1ccn(C(=O)N2CCC3(CCN(Cc4ccc(N5CCCC5)cc4C(F)(F)F)C3)CC2)n1` [Example 23, N-(1-(2-(4-(pyrrolidin-1-yl)-2-(trifluoromethyl)benzyl)-2,8-diazaspiro[4.5]decane-8-carbonyl)-1H-pyrazol-3-yl)acetamide], for which the inhibition at 1 µM at MAGL [1], on FAAH [2], on FAAH [3] and at MAGL [4] was more than 75% throughout. Moreover, the IC50 at MAGL [1] was less than 0.1 µM; at FAAH [2], 0.1 to 1 µM.

`CC(=O)Nc1ccn(C(=O)N2CC3CN(Cc4ccc(Cl)c(C5(O)CCCC5)c4)CC3C2)n1` (stereo not drawn) [Example 24, N-(1-(5-(4-Chloro-3-(1-hydroxycyclopentyl)benzyl)octahydropyrrolo[3,4-c]pyrrole-2-carbonyl)-1H-pyrazol-3-yl)acetamide]: the inhibition at 1 µM is more than 75% on MAGL [1], 0 to 25% on FAAH [2], 0 to 25% on FAAH [3] and more than 75% on MAGL [4].

For `CC(=O)Nc1ccn(C(=O)N2CCC3(CCN(Cc4cc(C(F)(F)F)cc(C5(C(=O)O)CCCC5)c4)C3)CC2)n1` [Example 25, 1-(3-((8-(3-Acetamido-1H-pyrazole-1-carbonyl)-2,8-diazaspiro[4.5]decan-2-yl)methyl)-5-(trifluoromethyl)phenyl)cyclopentane-1-carboxylic acid], the inhibition at 1 µM at MAGL [1] was more than 75%; at FAAH [2], 0 to 25%; on FAAH [3], 0 to 25%; at MAGL [4], more than 75%. Moreover, the results for the half-inhibitory concentration (IC50) at MAGL [1] and at FAAH [2] were less than 0.1 µM and 1 to 10 µM, respectively.

Take `CN(Cc1ccc(Cl)c(N2CC3COCC3C2)c1)C1(C)CCN(C(=O)n2ccc(NS(C)(=O)=O)n2)CC1` (stereo not drawn) [Example 26, N-(1-(4-((4-Chloro-3-(tetrahydro-1H-furo[3,4-c]pyrrol-5(3H)-yl)benzyl)(methyl)amino)-4-methylpiperidine-1-carbonyl)-1H-pyrazol-3-yl)methanesulfonamide]: the inhibition at 1 µM on MAGL [1] is more than 75%; on FAAH [2], 0 to 25%; at FAAH [3] it was 0 to 25%; at MAGL [4], 0 to 25%.

On to `CS(=O)(=O)Nc1ccn(C(=O)N2C[C@H]3C[C@H](OCc4cccc(C(F)(F)F)c4)C[C@H]3C2)n1` [Example 28, N-(1-((3aR,5s,6aS)-5-((3-(trifluoromethyl)benzyl)oxy)octahydrocyclopenta[c]pyrrole-2-carbonyl)-1H-pyrazol-3-yl)methanesulfonamide], for which the inhibition at 1 µM at MAGL [1], at FAAH [2], on FAAH [3] and on MAGL [4] was more than 75% each time.

With `CC1(N(CC(=O)O)Cc2ccc(C(F)(F)F)cc2N2CCCC2)CCN(C(=O)n2ccc(NS(C)(=O)=O)n2)CC1` [Example 29, N-(4-methyl-1-(3-(methylsulfonamido)-1H-pyrazole-1-carbonyl)piperidin-4-yl)-N-(2-(pyrrolidin-1-yl)-4-(trifluoromethyl)benzyl)glycine], the inhibition at 10 µM at MAGL [1] (10 μM, read-out: MAGL % inh. (human) @ 10 μM) was 50 to 75%. Besides, the inhibition at 1 µM at FAAH [2], at FAAH [3] and on MAGL [4] was 0 to 25% in each case.

On to `C[C@H]1CN(C(=O)n2ccc(NS(C)(=O)=O)n2)CCN1Cc1cnc(Cl)c(N2CCC(F)CC2)c1` [Example 31, (S)—N-(1-(4-((6-chloro-5-(4-fluoropiperidin-1-yl)pyridin-3-yl)methyl)-3-methylpiperazine-1-carbonyl)-1H-pyrazol-3-yl)methanesulfonamide], for which the inhibition at 1 µM at MAGL [1] is more than 75%; at FAAH [2] it was 0 to 25%; at FAAH [3] it was 0 to 25%; on MAGL [4], more than 75%.

As for `CC(C)(O)COc1cccc(CN2CCN(C(=O)n3ccc(NS(C)(=O)=O)n3)CC2)c1Cl` [Example 34, N-(1-(4-(2-Chloro-3-(2-hydroxy-2-methylpropoxy)benzyl)piperazine-1-carbonyl)-1H-pyrazol-3-yl)methanesulfonamide], the inhibition at 1 µM on MAGL [1], on FAAH [2], at FAAH [3] and at MAGL [4] was more than 75% each time. In addition, the results for the IC50 at MAGL [1] and at FAAH [2] were less than 0.1 µM and 0.1 to 1 µM, respectively.

Consider `CS(=O)(=O)Nc1ccn(C(=O)N2CCC(N(Cc3ccc(C(F)(F)F)cc3N3CCCC3)C3CC3)CC2)n1` [Example 35, N-(1-(4-(cyclopropyl(2-(pyrrolidin-1-yl)-4-(trifluoromethyl)benzyl)amino)piperidine-1-carbonyl)-1H-pyrazol-3-yl)methanesulfonamide], for which the inhibition at 1 µM at MAGL [1] was more than 75%; on FAAH [2] it was 0 to 25%; on FAAH [3] it was 0 to 25%; at MAGL [4], more than 75%.

For the molecule `CC(=O)Nc1ccn(C(=O)N2CCC3(CCCN3Cc3cc4cc(Cl)ccc4[nH]3)CC2)n1` [Example 38, N-(1-(1-((5-Chloro-1H-indol-2-yl)methyl)-1,8-diazaspiro[4.5]decane-8-carbonyl)-1H-pyrazol-3-yl)acetamide], the IC50 at MAGL [1] is less than 0.1 µM; at FAAH [2], 1 to 10 µM. The inhibition at 1 µM at FAAH [3] is 25 to 50%; at MAGL [4] it was more than 75%.
